Experimental data published in US8673617B2, “Culture medium for Haemophilus influenzae type B” (Sanofi Pasteur SA, priority 2007, dated 2014).

Tested on: Haemophilus influenzae serotype b
Assay: PRP production in liquid casein hydrolysate (HAC) medium with increasing hemin (sandwich ELISA on supernatant)
Format: cell-based
Details: for Mean PRP / PRP in mg/l Assay 1 / PRP in mg/l Assay 2: HAC medium, 16 h
Experimental: The production of PRP obtained after 16 hours of bacterial culture in liquid plant peptones-based culture media in which the heme source was either hemin or protoporphyrin IX of animal origin (porcine protoporphyrin) in disodium salt form, or protoporphyrin IX of purely synthetic origin in disodium salt form was compared. The hemin and protoporphyrin IX concentration ranges in the culture media varied from about 0.010 g/l to about 2 g/l so as to obtain PRP titration curves as a function of the heme source tested and as a function of the plant peptone tested. An enzymatic hydrolysate of garden pea peptone provided by Kerry (Hy pea 7404) and a wheat peptone provided by Organotechnie (19559) were tested at a concentration in the culture medium equivalent to 0.87 g/l of protein nitrogen. By reference to the current methods for the production of PRP, PRP production was also measured in a medium that contains a peptone of animal origin, such as casein hydrolysate (HAC) provided by Solabia at a concentration in the medium equivalent to 0.87 g/l with increased concentrations of hemin (see table III).
1.1) Preparation of the Media • 1.1.1. Stock solution of β-NAD (Fluka) at 1 g/l in water which was ultrafiltered and then sterilized by filtration through 0.22 μm. • 1.1.2. Stock solution of hemin (Sigma) at 0.25 g/l in water was ultrafiltered, comprising 5 ml of 25% aqueous ammonia (Cooper) to aid dissolution. The stock solution was sterilized by filtration through 0.22 μm. • 1.1.3. Stock solution of porcine protoporphyrin IX (Sigma) at 0.25 g/l in ultrafiltered water comprising 5 ml of 25% aqueous ammonia (Cooper) in order to facilitate the dissolution. The stock solution was sterilized by filtration through 0.22 μm. • 1.1.4. Stock solution of synthetic protoporphyrin IX at 0.25 g/l in ultrafiltered water comprising 5 ml of 25% aqueous ammonia (Cooper) in order to facilitate the dissolution. The stock solution was also heated to 80° C. in a water bath with stirring in order to complete the dissolution before being sterilized by filtration through 0.22 μm. The protoporphyrin IX, in disodium salt form, was synthesized according to the method described in the U.S. provisional patent application Ser. No. 12/057,574, filed Mar. 28, 2008 and application Ser. No. 60/943,735 and filed on Jun. 13, 2007 using the steps which are described in scheme 2. • The stock solutions of hemin and protoporphyrin IX were checked for their respective contents of active compounds after sterilizing filtration. The protoporphyrin IX and hemin contents were determined by Reversed Phase High Performance Liquid Chromatography (RP-HPLC). The chromatographic chain comprises a twin head pump module allowing the formation of a binary gradient, a programmable automatic injector, a diode array UV detector and a chromatographic column of the type Synergi 4 μm, Polar RP-80A (150×4.6) mm, ref 00F-4336-E0, Phenomenex. • The stock solution of hemin (Sigma) to be checked after filtration was diluted ⅓ in distilled water. The stock solutions of porcine protoporphyrin IX (Sigma) and of synthetic protoporphyrin IX to be checked after filtration were diluted ¼ in distilled water. In parallel, a calibration series was prepared in ammoniated water ranging from 0.025 g/l to 0.125 g/l of protoporphyrin IX from porcine protoporphyrin IX from Sigma (ref: 25838-5) and a calibration series ranging from 0.050 g/l to 0.150 g/l of hemin from hemin from Sigma (ref: H5533-256). The samples to be checked and the various solutions of the calibration series were injected in a volume of 20 μl (for the hemin solutions and samples) and of 5 μl (for the protoporphyrin IX solutions and samples). The initial mobile phase consisting of a volume for volume mixture of acetonitrile and 10 mM KH2PO4 pH 2.5 is set at a flow rate of 1 ml/min. A discontinuous gradient was then produced from this mobile phase in order to separate the molecules of interest which are detected at a wavelength of 400 nm. […]

C=CC1=C(C)c2cc3[n-]c(cc4nc(cc5[n-]c(cc1n2)c(C)c5CCC(=O)O)C(CCC(=O)O)=C4C)c(C)c3C=C.[Cl-].[Fe+3] [Hemin, hemin, reference compound]
Mean PRP (hemin 11.8 μg/l): 16.8 mg/L | PRP in mg/l Assay 1 (hemin 11.8 μg/l): 18.9 mg/L | PRP in mg/l Assay 2 (hemin 11.8 μg/l): 14.7 mg/L | Mean PRP (hemin 59 μg/l): 80.2 mg/L | PRP in mg/l Assay 1 (hemin 59 μg/l): 82.7 mg/L | PRP in mg/l Assay 2 (hemin 59 μg/l): 77.7 mg/L | Mean PRP (hemin 118 μg/l): 199.5 mg/L | PRP in mg/l Assay 1 (hemin 118 μg/l): 183 mg/L | PRP in mg/l Assay 2 (hemin 118 μg/l): 216 mg/L | Mean PRP (hemin 295 μg/l): 314.5 mg/L | PRP in mg/l Assay 1 (hemin 295 μg/l): 325 mg/L | PRP in mg/l Assay 2 (hemin 295 μg/l): 304 mg/L | Mean PRP (hemin 590 μg/l): 410.5 mg/L | PRP in mg/l Assay 1 (hemin 590 μg/l): 381 mg/L | PRP in mg/l Assay 2 (hemin 590 μg/l): 440 mg/L | Mean PRP (hemin 1180 μg/l): 414.5 mg/L | PRP in mg/l Assay 1 (hemin 1180 μg/l): 424 mg/L | PRP in mg/l Assay 2 (hemin 1180 μg/l): 405 mg/L | Mean PRP (hemin 1770 μg/l): 461.5 mg/L | PRP in mg/l Assay 1 (hemin 1770 μg/l): 404 mg/L | PRP in mg/l Assay 2 (hemin 1770 μg/l): 519 mg/L | Mean PRP (hemin 2360 μg/l): 464.5 mg/L | PRP in mg/l Assay 1 (hemin 2360 μg/l): 439 mg/L | PRP in mg/l Assay 2 (hemin 2360 μg/l): 490 mg/L | hemin concentration to obtain about 400 mg/l of PRP (casein hydrolysate and hemin-based medium): at least 500 μg/l
